Reference: PMC5509550, “Development of a Novel Lead that Targets M. tuberculosis Polyketide Synthase 13” (Cell, 2017)
Values after ≈ are worked out from the molar mass of the structure shown. Read-outs that look alike come from different tables or passages of the source.

Columns and labels:
Mtb Pks13-TE domain = target: T1, Mtb Pks13-TE domain (Mycobacterium tuberculosis, UniProt I6X8D2); experiment: biochemical; details: mean ± SD of three independent measurements
T1 construct: The 283 residue long TE domain starting from residue 1451 in full length Pks13; His6 (TEV-cleavable) (N, cleaved yes); made in house; host or cells: E. coli BL21(DE3)pLysS
T1 sequence (I6X8D2 1451-1733 limits assumed): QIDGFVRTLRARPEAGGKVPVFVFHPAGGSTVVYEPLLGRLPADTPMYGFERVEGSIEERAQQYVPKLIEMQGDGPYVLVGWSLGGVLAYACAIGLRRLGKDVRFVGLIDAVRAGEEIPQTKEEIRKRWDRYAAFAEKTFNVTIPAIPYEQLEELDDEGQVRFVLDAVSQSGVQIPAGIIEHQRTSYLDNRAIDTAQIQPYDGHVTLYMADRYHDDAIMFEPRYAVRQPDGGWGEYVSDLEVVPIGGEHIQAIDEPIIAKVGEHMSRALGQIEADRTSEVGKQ

Mtb mc^27000 [1] = experiment: microbe, parasite or virus in culture; assay type: cell-based, Mycobacterium tuberculosis; details: for MIC: Mtb mc^27000, liquid medium, 96-well plates
Mtb mc^27000 [2] = experiment: microbe, parasite or virus in culture; assay type: cell-based, Mycobacterium tuberculosis; details: for MIC: Mycobacterium tuberculosis, read-out: MIC of the drug alone
[3] = Microsomal stability assay, mouse liver microsomes; details: metabolite identification
M. tuberculosis H37Rv = tested on: M. tuberculosis H37Rv; set-up: species or system Mycobacterium tuberculosis; details: in vivo
M. tuberculosis Erdman [4] = tested on: M. tuberculosis Erdman; set-up: species or system Mycobacterium tuberculosis; details: in vivo
CYP1A2 = target: T2, CYP1A2 (Homo sapiens, UniProt P05177); experiment: biochemical
T2 sequence (P05177 1-516): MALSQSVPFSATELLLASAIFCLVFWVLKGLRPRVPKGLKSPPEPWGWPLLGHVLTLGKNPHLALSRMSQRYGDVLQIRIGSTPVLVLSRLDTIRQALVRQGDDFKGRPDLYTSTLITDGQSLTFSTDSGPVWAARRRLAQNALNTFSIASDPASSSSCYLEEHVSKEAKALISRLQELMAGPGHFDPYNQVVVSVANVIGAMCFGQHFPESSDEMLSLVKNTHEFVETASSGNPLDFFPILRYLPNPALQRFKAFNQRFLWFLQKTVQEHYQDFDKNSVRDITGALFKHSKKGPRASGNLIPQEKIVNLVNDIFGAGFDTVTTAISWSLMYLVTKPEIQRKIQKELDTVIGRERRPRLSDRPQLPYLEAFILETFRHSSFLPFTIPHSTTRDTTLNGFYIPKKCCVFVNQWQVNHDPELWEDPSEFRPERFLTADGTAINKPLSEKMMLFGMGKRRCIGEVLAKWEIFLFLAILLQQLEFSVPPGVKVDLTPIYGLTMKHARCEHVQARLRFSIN

CYP2C9 = CYP2C9 (Homo sapiens, UniProt P11712); experiment: biochemical
CYP2D6 = CYP2D6 (Homo sapiens, UniProt P10635); experiment: biochemical
M. tuberculosis Erdman [5] = tested on: M. tuberculosis Erdman; set-up: species or system Mycobacterium tuberculosis; details: in vivo; remark: listed apart in the source
[6] = single drug in the synergy study

Chain of CYP2D6 (P10635 whole entry): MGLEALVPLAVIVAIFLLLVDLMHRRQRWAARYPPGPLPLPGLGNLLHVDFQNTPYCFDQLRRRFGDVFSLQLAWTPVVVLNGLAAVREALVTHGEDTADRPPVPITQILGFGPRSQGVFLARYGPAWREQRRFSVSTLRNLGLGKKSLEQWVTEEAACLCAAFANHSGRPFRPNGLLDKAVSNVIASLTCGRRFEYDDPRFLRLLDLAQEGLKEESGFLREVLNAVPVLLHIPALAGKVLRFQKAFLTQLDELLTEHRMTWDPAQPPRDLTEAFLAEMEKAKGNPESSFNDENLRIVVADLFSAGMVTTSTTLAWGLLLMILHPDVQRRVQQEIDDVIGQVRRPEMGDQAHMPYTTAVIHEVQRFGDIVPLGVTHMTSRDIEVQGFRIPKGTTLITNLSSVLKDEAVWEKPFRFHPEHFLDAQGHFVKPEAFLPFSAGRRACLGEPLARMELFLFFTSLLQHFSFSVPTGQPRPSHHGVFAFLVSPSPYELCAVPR
Chain of CYP2C9 (P11712 whole entry): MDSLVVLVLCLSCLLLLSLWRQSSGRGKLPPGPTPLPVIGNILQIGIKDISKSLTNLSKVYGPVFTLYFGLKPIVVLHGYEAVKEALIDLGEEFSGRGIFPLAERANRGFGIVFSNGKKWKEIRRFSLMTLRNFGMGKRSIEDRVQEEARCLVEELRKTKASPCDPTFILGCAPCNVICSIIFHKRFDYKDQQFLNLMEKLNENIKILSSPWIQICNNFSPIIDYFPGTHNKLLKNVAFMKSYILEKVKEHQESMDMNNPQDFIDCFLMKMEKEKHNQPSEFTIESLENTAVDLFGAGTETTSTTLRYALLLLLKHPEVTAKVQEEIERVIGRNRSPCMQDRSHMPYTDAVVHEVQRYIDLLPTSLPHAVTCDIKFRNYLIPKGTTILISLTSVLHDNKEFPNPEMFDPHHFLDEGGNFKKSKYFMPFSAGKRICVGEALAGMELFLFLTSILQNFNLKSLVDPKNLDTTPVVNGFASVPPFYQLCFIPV

CCOC(=O)c1c(-c2ccccc2)oc2ccc(O)cc12 [TAM7, Ethyl 5-hydroxy-2-phenylbenzofuran-3-carboxylate]
IC50 (Mtb Pks13-TE domain): 20000 ± 1900 nM | MIC (Mtb mc^27000 [1]; Mycobacterium tuberculosis): 20 µM (≈ 5.65 µg/mL)

CCOC(=O)c1c(-c2ccccc2)oc2ccc(O)c(CN3CCOCC3)c12 [TAM5, ethyl 5-hydroxy-4-(4-morpholinylmethyl)-2-phenyl-1-benzofuran-3-carboxylate]
IC50 (Mtb Pks13-TE domain): 710 ± 50 nM | MIC (Mtb mc^27000 [1]; Mycobacterium tuberculosis): 13.3 µM (≈ 5.07 µg/mL)

CCOC(=O)c1c(-c2ccccc2)oc2cc(O)cc(CN3CCCCC3)c12 [TAM20, Ethyl 6-hydroxy-2-phenyl-4-(piperidin-1-ylmethyl)benzofuran-3-carboxylate]
IC50 (Mtb Pks13-TE domain): 450 ± 40 nM | MIC (Mtb mc^27000 [1]; Mycobacterium tuberculosis): 1.1 µM (≈ 0.417 µg/mL)

CCOC(=O)c1c(-c2ccccc2)oc2ccc(O)c(CN3CCCC(CO)C3)c12 (centres unmarked) [TAM21, Ethyl 5-hydroxy-4-((3-(hydroxymethyl)piperidin-1-yl)methyl)-2-phenylbenzofuran-3-carboxylate]
IC50 (Mtb Pks13-TE domain): 420 ± 40 nM | MIC (Mtb mc^27000 [1]; Mycobacterium tuberculosis): 10 µM (≈ 4.09 µg/mL)

CNC(=O)c1c(-c2ccccc2)oc2ccc(O)c(CN3CCCCC3)c12 [TAM12, 5-hydroxy-N-methyl-2-phenyl-4-(piperidin-1-ylmethyl)benzofuran-3-carboxamide]
better whole-cell activity than ethyl ester analog TAM9 (Mtb mc^27000 [1]): 2 fold | MIC (Mtb mc^27000 [1]; Mycobacterium tuberculosis): 0.2 µM (≈ 0.0729 µg/mL) | Mouse Cli. (intrinsic clearance in mouse liver microsomes): 50 mL/min/g

COc1nc2ccc(Br)cc2cc1[C@@H](c1ccccc1)[C@@](O)(CCN(C)C)c1cccc2ccccc12 [TMC207, Bedaquiline]
MIC of TMC207 in combination (Mtb mc^27000 [2]): 0.005 µM | improvement of MIC of TMC207 in combination (Mtb mc^27000 [2]): 2.6 fold | MIC (Mtb mc^27000 [2]; [6]): 0.013 µM

[H]/N=C(/N)N[C@H]1[C@H](O)[C@@H](O)[C@H](O[C@@H]2O[C@@H](C)[C@](O)(C=O)[C@H]2O[C@@H]2O[C@@H](CO)[C@H](O)[C@@H](O)[C@@H]2NC)[C@@H](N/C(N)=N\[H])[C@@H]1O [SM, Streptomycin]
MIC of SM in combination (Mtb mc^27000 [2]): 0.037 µM | improvement of MIC of SM in combination (Mtb mc^27000 [2]): ~2 fold | MIC (Mtb mc^27000 [2]; [6]): 0.07 µM

CNC(=O)c1c(-c2ccc(O)c(F)c2)oc2ccc(O)c(CN3CCCCC3)c12 [TAM18, 2-(3-fluoro-4-hydroxyphenyl)-5-hydroxy-N-methyl-4-(piperidin-1-ylmethyl)benzofuran-3-carboxamide]
IC50 (Mtb Pks13-TE domain): 330 ± 30 nM | MIC (Mtb mc^27000 [1]; Mycobacterium tuberculosis): 0.5 µM (≈ 0.199 µg/mL)

CCOC(=O)c1c(-c2ccccc2)oc2ccc(O)c(CN3CCCC3)c12.Cl [TAM3, ethyl 5-hydroxy-2-phenyl-4-(1-pyrrolidinylmethyl)-1-benzofuran-3-carboxylate hydrochloride]
IC50 (Mtb Pks13-TE domain): 240 ± 20 nM | MIC (Mtb mc^27000 [1]): 4.1 µM

CCOC(=O)c1c(-c2ccccc2)oc2ccc(O)c(CN3CCC(C)CC3)c12 [TAM1, ethyl 5-hydroxy-4-[(4-methyl-1-piperidinyl)methyl]-2-phenyl-1-benzofuran-3-carboxylate]
MIC (Mtb mc^27000 [1]; Mycobacterium tuberculosis): 2.3 µM (≈ 0.905 µg/mL) | stability in mouse serum (Stability in mouse serum): cleaved to the inactive acid | metabolism in mouse liver microsomes [3]: hydroxylated

CCOC(=O)c1c(-c2ccc(O)cc2)oc2ccc(O)c(CN3CCCCC3)c12 [TAM13, Ethyl 5-hydroxy-2-(4-hydroxyphenyl)-4-(piperidin-1-ylmethyl)benzofuran-3-carboxylate]
IC50 (Mtb Pks13-TE domain): 170 ± 20 nM

CCOC(=O)c1c(-c2ccccc2)oc2ccc(O)c(CC3CCCCC3)c12 [TAM11, Ethyl 4-(cyclohexylmethyl)-5-hydroxy-2-phenylbenzofuran-3-carboxylate]
IC50 (Mtb Pks13-TE domain): 19600 ± 1400 nM | MIC (Mtb mc^27000 [1]; Mycobacterium tuberculosis): 5.2 µM (≈ 1.97 µg/mL)

CCOC(=O)c1c(-c2ccccc2)oc2ccc(O)c(CN3CCCCC3)c12 [TAM9, Ethyl 5-hydroxy-2-phenyl-4-(piperidin-1-ylmethyl)benzofuran-3-carboxylate]
IC50 (Mtb Pks13-TE domain): 260 ± 40 nM | MIC (Mtb mc^27000 [1]; Mycobacterium tuberculosis): 0.4 µM (≈ 0.152 µg/mL) | Mouse Cli. (intrinsic clearance in mouse liver microsomes): 26.9 mL/min/g

CCOC(=O)c1c(-c2ccc(O)nc2)oc2ccc(O)c(CN3CCCCC3)c12 [TAM17, Ethyl 5-hydroxy-2-(6-hydroxypyridin-3-yl)-4-(piperidin-1-ylmethyl)benzofuran-3-carboxylate]
IC50 (Mtb Pks13-TE domain): 360 ± 40 nM | MIC (Mtb mc^27000 [1]; Mycobacterium tuberculosis): 4 µM (≈ 1.59 µg/mL)

CCOC(=O)c1c(-c2ccccc2)oc2ccc(OC)c(CN3CCCCC3)c12 [TAM14, Ethyl 5-methoxy-2-phenyl-4-(piperidin-1-ylmethyl)benzofuran-3-carboxylate]
IC50 (Mtb Pks13-TE domain): 35800 ± 2200 nM

NNC(=O)c1ccncc1 [INH, Isoniazid]
lung CFU after 2 weeks of treatment (M. tuberculosis H37Rv): ~6.7 log10 | reduction in lung CFU counts compared with untreated control (M. tuberculosis Erdman [4]): ~1.1 log10 | reduction in spleen bacterial burden relative to untreated control (M. tuberculosis Erdman [4]): ~2.5 log10 CFU

CNC(=O)c1c(-c2ccccc2)oc2ccc(O)c(CN3CCCC(CO)C3)c12 (centres unmarked) [TAM24, 5-Hydroxy-4-((3-(hydroxymethyl)piperidin-1-yl)methyl)-N-methyl-2-phenylbenzofuran-3-carboxamide]
IC50 (Mtb Pks13-TE domain): 2100 ± 300 nM | MIC (Mtb mc^27000 [1]; Mycobacterium tuberculosis): 0.5 µM (≈ 0.197 µg/mL)

CNC(=O)c1c(-c2ccc(O)cc2)oc2cc(O)cc(CN3CCCCC3)c12 [TAM19, 6-hydroxy-2-(4-hydroxyphenyl)-N-methyl-4-(piperidin-1-ylmethyl)benzofuran-3-carboxamide]
IC50 (Mtb Pks13-TE domain): 570 ± 30 nM | MIC (Mtb mc^27000 [1]; Mycobacterium tuberculosis): 1 µM (≈ 0.38 µg/mL)

Clc1ccc(COC(Cn2ccnc2)c2ccc(Cl)cc2Cl)c(Cl)c1 (centres unmarked) [Miconazole]
IC50 (CYP1A2): 1100 nM | IC50 (CYP2C9): > 10000 nM | IC50 (CYP2D6): 200 nM

CO[C@H]1/C=C/O[C@@]2(C)Oc3c(C)c(O)c4c(O)c(c(/C=N/N5CCN(C)CC5)c(O)c4c3C2=O)NC(=O)/C(C)=C\C=C\[C@H](C)[C@H](O)[C@@H](C)[C@@H](O)[C@@H](C)[C@H](OC(C)=O)[C@@H]1C [RIF, Rifampicin]
MIC of RIF in combination (Mtb mc^27000 [2]): 0.011 µM | improvement of MIC of RIF in combination (Mtb mc^27000 [2]): ~3 fold | MIC (Mtb mc^27000 [2]): 0.35 µM | CFU reduction in lungs compared to untreated control (M. tuberculosis Erdman [5]): ~2.4 log10 CFU

O=C(O)c1c(-c2ccccc2)oc2ccc(O)c(CN3CCCCC3)c12 [TAM10, 5-hydroxy-2-phenyl-4-(piperidin-1-ylmethyl)benzofuran-3-carboxylic acid]
IC50 (Mtb Pks13-TE domain): 6600 ± 700 nM

CCOC(=O)c1c(-c2ccccc2)oc2ccc(O)c(CN3CCCCCC3)c12.Cl [TAM4, ethyl 4-(1-azepanylmethyl)-5-hydroxy-2-phenyl-1-benzofuran-3-carboxylate hydrochloride]
IC50 (Mtb Pks13-TE domain): 280 ± 30 nM | MIC (Mtb mc^27000 [1]): 4.6 µM

CCOC(=O)c1c(-c2ccccc2)oc2ccc(O)c(Cc3ccccc3)c12 [TAM8, Ethyl 4-benzyl-5-hydroxy-2-phenylbenzofuran-3-carboxylate]
IC50 (Mtb Pks13-TE domain): 11900 ± 2300 nM | MIC (Mtb mc^27000 [1]; Mycobacterium tuberculosis): > 40 µM

CCOC(=O)c1c(-c2ccccc2)oc2ccc(O)c(CN(C)C)c12 [TAM6, ethyl 4-[(dimethylamino)methyl]-5-hydroxy-2-phenyl-1-benzofuran-3-carboxylate]
IC50 (Mtb Pks13-TE domain): 1570 ± 150 nM | MIC (Mtb mc^27000 [1]; Mycobacterium tuberculosis): 7.3 µM (≈ 2.48 µg/mL)

CCOC(=O)c1c(-c2ccccc2)oc2ccc(O)c(CN3CCCCC3CO)c12 (centres unmarked) [TAM22, Ethyl 5-hydroxy-4-((2-(hydroxymethyl)piperidin-1-yl)methyl)-2-phenylbenzofuran-3-carboxylate]
IC50 (Mtb Pks13-TE domain): > 10000 nM | MIC (Mtb mc^27000 [1]; Mycobacterium tuberculosis): > 10 µM

CCOC(=O)c1c(-c2ccccc2)oc2cccc(CN3CCCCC3)c12 [TAM15, Ethyl 2-phenyl-4-(piperidin-1-ylmethyl)benzofuran-3-carboxylate]
IC50 (Mtb Pks13-TE domain): 2000 ± 100 nM | MIC (Mtb mc^27000 [1]; Mycobacterium tuberculosis): 16 µM (≈ 5.82 µg/mL)

CCOC(=O)c1c(-c2ccccc2)oc2ccc(O)c(CN3CCCC(C)C3)c12 (centres unmarked) [TAM2, ethyl 5-hydroxy-4-[(3-methyl-1-piperidinyl)methyl]-2-phenyl-1-benzofuran-3-carboxylate]
IC50 (Mtb Pks13-TE domain): 120 ± 20 nM | MIC (Mtb mc^27000 [1]; Mycobacterium tuberculosis): 4.4 µM (≈ 1.73 µg/mL)

CCOC(=O)c1c(-c2ccc(O)cc2)oc2ccc(O)c(CN3CCCC(CO)C3)c12 (centres unmarked) [TAM23, Ethyl 5-hydroxy-4-((3-(hydroxymethyl)piperidin-1-yl)methyl)-2-(4-hydroxyphenyl)benzofuran-3-carboxylate]
IC50 (Mtb Pks13-TE domain): 380 ± 10 nM | MIC (Mtb mc^27000 [1]; Mycobacterium tuberculosis): 2.5 µM (≈ 1.06 µg/mL)
